{
  "source": "paper PMC4971421",
  "about": "“Redox-Dependent Modulation of T-Type Ca^2+ Channels in Sensory Neurons Contributes to Acute Anti-Nociceptive Effect of Substance P” (Antioxidants & Redox Signaling, 2016)",
  "key": {"[1]": {"system": "intracellular zinc levels in DRG neurons", "test": "Intracellular zinc imaging with FluoZin-3AM", "type": "cell-based, rat", "details": "for effect on zinc levels elevated by ZnPy: in the presence of 10 μM ZnPy", "method": "Changes in the intracellular zinc levels were evaluated using fluorescence imaging. DRG cultures were loaded with FluoZin-3AM (5 μM for 30 min at 37°C in the presence of 0.02% pluronic F-127). Cells were washed with extracellular bath solution composed of the following (in mM): 160 NaCl; 2.5 KCl; 2 CaCl2; 1 MgCl2; and 10 HEPES (pH 7.4 adjusted with NaOH); they were imaged using a Leica SP5 fluorescence imaging system assembled on a Leica DMI6000 microscope and illuminated with 488 nm light for 1200 ms (400 Hz) with a 2 s interval. Solutions were applied using a gravity perfusion system."}, "[2]": {"system": "T-type Ca^2+ channels (LVA Ca^2+ current) in DRG neurons", "test": "LVA (T-type) Ca2+ current, whole-cell patch clamp, cultured small-diameter DRG neurons", "type": "cell-based, rat", "details": "for effect on S9SP-mediated T-type current inhibition: 1 μM S9SP", "method": "(§1) DRG neurons from adult male Sprague–Dawley rats (170–180 g) were dissociated as previously described ([13], [29]) and cultured in DMEM supplemented with GlutaMax I, 10% fetal calf serum, penicillin (50 U/ml), and streptomycin (50 μg/ml) on glass coverslips that were coated with poly-D-lysine for 2–5 days in a humidified incubator (37°C, 5% CO2). No growth factors were added to the culture media. HEK 293 cells were cultured in the same DMEM media; cells were passaged every 2 days. Human NK1 receptor (GenBank accession No. AY462098) complementary DNA (cDNA) was from the Missouri Science and Technology cDNA Resource Center. WtCaV3.1 (GenBank accession No. AF027984), wtCaV3.2 (GenBank accession No. AF051946), CaV3.1Q172H, and CaV3.2H191Q were kindly provided by Dr E. Perez-Reyes (University of Virginia). HEK293 cells were transfected using Lipofectamine 2000 (Invitrogen) according to the manufacturer's instructions. ST101 was synthesized in house; Z944 was from Toronto Research Chemicals; PTX was from Enzo Life Science; and FluoZin-3AM was from Life Technologies. All other chemicals were from Sigma.\nAll recordings were made using Multiclamp 700B amplifier in combination with pCLAMP 10.4 software (Molecular Devices). Voltage-clamp recordings from DRG neurons were made using whole-cell patch clamp. The standard bath solution contained the following (in mM): 150 TEA-Cl; 2.5 CsCl; 2.5 CaCl2; 10 HEPES; 0.5 MgCl2; and 10 glucose (pH 7.4 adjusted with CsOH). The standard pipette solution contained the following (in mM): 110 CsCl; 3 MgCl2; 10 EGTA; 10 HEPES; 3 Mg-ATP; and 0.6 GTP (pH 7.4 adjusted with CsOH). The access resistance was typically within 4–8 MΩ. T-type calcium currents (LVA) were measured by 50 ms square voltage pulses to −40 mV from a holding potential of −90 mV. HVA currents were measured by 200 ms square voltage pulses to 0 mV from a holding potential of −90 mV.\nwhere y is the current inhibition; A1 and A2 are the maximum and minimum effects, respectively; x is the S9SP concentration; and nH is the Hill coefficient."}, "CaV3.2": {"target": "T1, CaV3.2 (Homo sapiens, UniProt O95180)", "T1 construct": "expressed in transfected cells; host or cells: HEK293 cells, transient transfection with Lipofectamine 2000; The CaV3.2 cDNA was a gift of Dr E. Perez-Reyes; The NK1 cDNA was from the Missouri S&T cDNA Resource Center", "T1 sequence (O95180 whole entry)": "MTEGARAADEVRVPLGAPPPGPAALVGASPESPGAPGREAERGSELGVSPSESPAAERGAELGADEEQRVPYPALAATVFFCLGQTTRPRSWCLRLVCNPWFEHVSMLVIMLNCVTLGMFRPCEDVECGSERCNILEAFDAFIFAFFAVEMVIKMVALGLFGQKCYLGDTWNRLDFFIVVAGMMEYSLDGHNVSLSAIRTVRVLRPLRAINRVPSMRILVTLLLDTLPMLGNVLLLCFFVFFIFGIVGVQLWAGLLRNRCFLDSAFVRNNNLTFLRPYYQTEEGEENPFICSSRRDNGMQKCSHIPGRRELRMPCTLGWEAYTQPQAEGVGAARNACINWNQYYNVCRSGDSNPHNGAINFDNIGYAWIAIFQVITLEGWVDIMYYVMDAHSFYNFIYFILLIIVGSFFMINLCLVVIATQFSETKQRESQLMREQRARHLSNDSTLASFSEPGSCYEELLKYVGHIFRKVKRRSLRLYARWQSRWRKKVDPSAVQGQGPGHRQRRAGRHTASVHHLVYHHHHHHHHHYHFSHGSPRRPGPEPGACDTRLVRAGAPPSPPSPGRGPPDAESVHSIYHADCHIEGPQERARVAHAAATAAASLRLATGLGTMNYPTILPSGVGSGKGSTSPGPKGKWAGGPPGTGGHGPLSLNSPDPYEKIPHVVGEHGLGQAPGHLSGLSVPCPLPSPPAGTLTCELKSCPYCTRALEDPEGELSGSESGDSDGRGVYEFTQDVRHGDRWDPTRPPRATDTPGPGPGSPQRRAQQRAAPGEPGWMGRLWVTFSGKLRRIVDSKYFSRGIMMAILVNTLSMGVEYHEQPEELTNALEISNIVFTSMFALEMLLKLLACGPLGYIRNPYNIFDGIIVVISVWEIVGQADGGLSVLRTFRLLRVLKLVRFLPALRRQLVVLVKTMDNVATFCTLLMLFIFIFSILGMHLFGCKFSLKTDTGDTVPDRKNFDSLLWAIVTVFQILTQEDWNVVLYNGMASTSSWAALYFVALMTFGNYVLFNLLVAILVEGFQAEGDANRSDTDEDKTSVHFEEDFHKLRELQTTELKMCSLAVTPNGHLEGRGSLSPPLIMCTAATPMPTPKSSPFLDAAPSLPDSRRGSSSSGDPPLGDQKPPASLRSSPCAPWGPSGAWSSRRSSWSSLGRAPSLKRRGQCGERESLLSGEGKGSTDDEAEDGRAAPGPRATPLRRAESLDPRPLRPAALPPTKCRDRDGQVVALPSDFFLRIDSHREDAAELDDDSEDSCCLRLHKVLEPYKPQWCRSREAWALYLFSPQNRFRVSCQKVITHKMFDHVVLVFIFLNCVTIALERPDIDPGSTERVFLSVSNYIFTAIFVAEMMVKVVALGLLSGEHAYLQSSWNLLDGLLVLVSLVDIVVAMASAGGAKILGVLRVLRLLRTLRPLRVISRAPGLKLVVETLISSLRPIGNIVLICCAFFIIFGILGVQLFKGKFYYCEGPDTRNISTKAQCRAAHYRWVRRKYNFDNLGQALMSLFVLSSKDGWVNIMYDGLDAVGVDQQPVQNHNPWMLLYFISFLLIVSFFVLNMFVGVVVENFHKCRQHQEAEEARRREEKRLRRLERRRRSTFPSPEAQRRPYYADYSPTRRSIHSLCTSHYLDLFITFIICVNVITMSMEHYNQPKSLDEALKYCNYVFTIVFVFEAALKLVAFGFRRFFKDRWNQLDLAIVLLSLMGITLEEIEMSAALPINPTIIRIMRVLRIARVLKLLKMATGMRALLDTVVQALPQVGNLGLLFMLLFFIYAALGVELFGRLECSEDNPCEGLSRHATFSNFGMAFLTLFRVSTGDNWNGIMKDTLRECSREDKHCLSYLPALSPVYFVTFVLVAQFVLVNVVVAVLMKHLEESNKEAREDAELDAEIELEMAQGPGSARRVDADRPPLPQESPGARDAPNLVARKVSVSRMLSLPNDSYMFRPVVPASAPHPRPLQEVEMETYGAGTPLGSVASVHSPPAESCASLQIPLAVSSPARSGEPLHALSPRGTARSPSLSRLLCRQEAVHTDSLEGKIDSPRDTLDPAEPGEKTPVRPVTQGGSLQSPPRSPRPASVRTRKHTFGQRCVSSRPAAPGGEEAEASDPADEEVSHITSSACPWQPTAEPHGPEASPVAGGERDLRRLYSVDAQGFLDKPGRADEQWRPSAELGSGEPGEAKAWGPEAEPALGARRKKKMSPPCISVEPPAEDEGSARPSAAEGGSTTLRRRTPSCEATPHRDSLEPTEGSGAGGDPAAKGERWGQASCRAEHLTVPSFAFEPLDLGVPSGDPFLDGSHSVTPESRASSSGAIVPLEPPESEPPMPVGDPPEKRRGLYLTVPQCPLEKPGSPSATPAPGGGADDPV", "test": "Recombinant CaV3.2 current in HEK293 cells co-transfected with NK1 receptor, perforated patch", "type": "cell-based", "method": "as §1\nIn recordings from HEK 293 cells, amphotericin B-perforated patch-clamp technique was used ([13]). The pipette solution contained the following (in mM): 155 CsCl; 10 HEPES; 1 EGTA; and 4 MgCl2 supplemented with amphotericin B (250 μg/ml), pH 7.4 adjusted with CsOH. The bath solution was the same as for DRG neuron recordings. The access resistance was typically within 8–12 MΩ.\nIn experiments with H2O2, 3% agar-salt (3 M KCl) bridges were used. Concentration dependence of CaV3.2 channel inhibition by zinc was fit to the two-component logistic function:\nwhere N0 is the total amount of zinc-binding sites, N0(max1) is the amount of high-affinity binding sites, N0(max2) is the amount of low-affinity binding sites, Imax is the maximal CaV3.2 peak current amplitude, IC50 is the [Zn^2+] necessary for half-maximal inhibition, and nH is the Hill coefficient. The concentration dependency of the S9SP effect was fit to the one-component logistic function: […]"}, "rat hind paw [3]": {"system": "rat hind paw", "test": "Hargreaves test, paw withdrawal latency to noxious heat", "type": "in vivo", "details": "hind-paw injection 50 μl; 0.1–10 nmol/site; 8 min after injection", "method": "For measurement of thermal hyperalgesia, the change in the latency of hind-paw withdrawal in response to noxious heat was recorded using the Hargreaves’ plantar method (Ugo Basile) at 8 min after the hind-paw injection of drugs; the heat source was set to 25% of the maximal intensity."}, "rat hind paw [4]": {"system": "rat hind paw", "test": "BK-induced nocifensive behavior, pre-injection protocol", "type": "in vivo", "details": "pre-injection 50 μl; 1–10 nmol/site, 5 min before BK 10 nmol/site", "method": "Sprague–Dawley rats (body weight, 170–180 g) were grouped randomly and allowed to acclimate for at least 30 min in a transparent observation chamber before the experiment. Animals received a 50-μl intraplantar injection of ST101 (0.001–10 nmol/site), BK (10 nmol/site), RTG (1–10 nmol/site), Z944 (0.05–5 nmol/site), SP (0.5–5 nmol/site), or saline, respectively, into the right hind paw. For evaluation of the acute “spontaneous” pain, animals were video-recorded for 30 min after the injection and protective (“nocifensive”) behavior was analyzed as time spent licking, biting, lifting, and flinching the injected paw. The analyses were performed by an observer who was unaware of treatment allocations. In the pre-injection experiments, the right hind paw of the animal received a pre-injection of 50 μl Z944 (0.05–0.5 nmol/site), RTG (1–10 nmol/site), SP (0.5 nmol/site), Z944 (0.05–0.5 nmol/site)+RTG (1 nmol/site), or saline; 5 min later, on the same paw, the animal received a further 50-μl injection of BK (10 nmol/site) together with the pre-injection drug mix. Nocifensive behavior was analyzed as described earlier.\nThe in vivo CaV3.2 knock-down was performed as described earlier ([3]) by using the same ODN sequences that were synthesized by SBS Genetech. AS ODNs had the following sequence: […]. The mismatch ODNs of the following sequence were used as a negative control: […]. The mismatch ODN was not complementary to any known nucleotide sequence. ODNs were reconstituted in saline before injection. ODNs (12.5 μg/rat in 10 μl of saline) or saline were injected intrathecally (i.t.) between the L5 and L6 dorsal spinous processes as described earlier ([3], [42]) under isoflurane anesthesia. The treatment was repeated twice daily for 4 days. The pain tests were performed on the next day after the last injection. After behavioral testing, animals were humanly sacrificed; lumbar DRGs were extracted and analyzed for the knock-down efficiency by comparing the Cacna1h mRNA levels in lumbar (L4 to L6) DRGs of the saline-injected, mismatch ODN-injected, and AS ODN-injected animals using RT-PCR. The same Cacna1h and Gapdh primers as in siRNA experiments were used for RT-PCR."}},
  "note": "Where two headings read alike, the source gives them in different places.",
  "data": [
    {"compound": "c1ccc(CN(CCN(Cc2ccccn2)Cc2ccccn2)Cc2ccccn2)nc1", "note": "[TPEN, N,N,N′,N′-Tetrakis(2-pyridylmethyl)ethylenediamine]", "values": [
      {"measurement": "effect on zinc levels elevated by ZnPy", "setting": "[1]; 20 μM", "result": "completely reversed the increase in fluorescence"},
      {"measurement": "reversal of S9SP-induced LVA current inhibition", "setting": "[2]; 10 μM TPEN bath application, still in the presence of 1 μM S9SP", "result": "completely reversed"},
      {"measurement": "effect on SP- and H2O2-induced inhibitions of recombinant CaV3.2", "setting": "CaV3.2", "result": "prevented"},
      {"measurement": "effect on CaV3.2 currents in control conditions", "setting": "CaV3.2; 10 μM", "result": "only marginal augmentation"}
    ]},
    {"compound": "COCC(=O)O[C@]1(CCN(C)CCCc2nc3ccccc3[nH]2)CCc2cc(F)ccc2[C@@H]1C(C)C", "note": "[MIB, mibefradil]", "values": [
      {"measurement": "sensitivity of LVA currents to inhibitor", "setting": "[2]; 3 μM", "result": "sensitive"}
    ]},
    {"compound": "CCCCCC[C@H]1C(=O)O[C@H](C)[C@H](NC(=O)c2cccc(NC=O)c2O)C(=O)O[C@@H](C)[C@@H]1OC(=O)CC(C)C", "note": "[antimycin A]", "values": [
      {"measurement": "inhibition of LVA current", "setting": "[2]; 1 μM", "result": "~25", "unit": "%"}
    ]},
    {"compound": "CSCC[C@H](NC(=O)[C@H](CC(C)C)NC(=O)CN(C)C(=O)[C@H](Cc1ccccc1)NC(=O)[C@H](Cc1ccccc1)NC(=O)[C@H](CCC(N)=O)NC(=O)[C@H](CCC(N)=O)NC(=O)[C@@H]1CCCN1C(=O)[C@H](CCCCN)NC(=O)[C@@H]1CCCN1C(=O)[C@@H](N)CCCNC(=N)N)C(N)=O", "note": "[S9SP, [Sar^9]-Substance P]", "values": [
      {"measurement": "current amplitude in the presence of S9SP, % of basal value", "setting": "CaV3.2; 1 μM S9SP, wtCaV3.2, mean ± SEM, n = 13, SEM", "result": "69.8% ± 6.8%"}
    ]},
    {"compound": "OO", "note": "[H2O2]", "values": [
      {"measurement": "inhibition of LVA current", "setting": "[2]; 300 μM bath application", "result": "~20", "unit": "%"},
      {"measurement": "effect on recombinant CaV3.2", "setting": "CaV3.2; H2O2", "result": "inhibited"}
    ]},
    {"compound": "CCOC(=O)Nc1ccc(NCc2ccc(F)cc2)cc1N", "note": "[RTG, retigabine]", "values": [
      {"measurement": "paw withdrawal latency on radiant heat exposure", "setting": "rat hind paw [3]", "result": "produced a similar effect"},
      {"measurement": "BK-induced nociception", "setting": "rat hind paw [4]", "result": "significantly attenuated"}
    ]},
    {"compound": "COc1ccccc1CN[C@H]1CCCN[C@H]1c1ccccc1.Cl.Cl", "note": "[CP-99994, (2S,3S)-3-(2-Methoxybenzylamino)-2-phenylpiperidine dihydrochloride]", "values": [
      {"measurement": "effect on S9SP-induced LVA current inhibition", "setting": "[2]; 3 μM, 30 min pre-incubation, co-applied with 1 μM S9SP", "result": "abolished the effect of S9SP"}
    ]},
    {"compound": "[Cl-].[Cl-].[Zn+2]", "note": "[ZnCl2]", "values": [
      {"measurement": "intracellular zinc levels (FluoZin-3 fluorescence)", "setting": "[1]; 1.5 mM", "result": "large responses"},
      {"measurement": "inhibition of LVA current", "setting": "[2]; 750 nM, n = 9", "result": "~25", "unit": "%"},
      {"measurement": "maximal inhibition at the high-affinity site", "setting": "CaV3.2; S9SP-treated cells (1 μM)", "result": "44.1% ± 5.1%"},
      {"measurement": "IC50", "setting": "CaV3.2; after S9SP treatment, 1 μM S9SP in all ZnCl2 solutions, read-out: IC50(1), high-affinity site, zinc inhibition of CaV3.2", "result": "0.35 ± 0.25", "unit": "nM"},
      {"measurement": "IC50", "setting": "CaV3.2; after S9SP treatment, 1 μM S9SP in all ZnCl2 solutions, read-out: IC50(2), low-affinity site, zinc inhibition of CaV3.2", "result": "923 ± 582", "unit": "nM"},
      {"measurement": "maximal inhibition at the high-affinity site", "setting": "CaV3.2; control cells", "result": "9.9% ± 11.3%"},
      {"measurement": "IC50", "setting": "CaV3.2; control conditions, two-component logistic fit, 6–12 experiments, read-out: IC50(1), high-affinity site, zinc inhibition of CaV3.2", "result": 0.25, "unit": "nM"},
      {"measurement": "IC50", "setting": "CaV3.2; control conditions, two-component logistic fit, 6–12 experiments, read-out: IC50(2), low-affinity site, zinc inhibition of CaV3.2", "result": "495 ± 326", "unit": "nM"}
    ]},
    {"compound": "CN(C)CCCn1cc(C2=C(c3c[nH]c4ccccc34)C(=O)NC2=O)c2ccccc21", "note": "[BIM I, bisindolylmaleimide I]", "values": [
      {"measurement": "effect on S9SP-mediated T-type current inhibition", "setting": "[2]; 200 nM, 20 min pretreatment", "result": "without a significant effect"}
    ]},
    {"compound": "Arg-Pro-Lys-Pro-Gln-Gln-Phe-Phe-Sar-Leu-Met[O2]-NH2 [S9M11SP, [Sar^9, Met(O2)^11]-Substance P]", "values": [
      {"measurement": "LVA current inhibition", "setting": "[2]; 1 μM", "result": "quantitatively similar to that of S9SP"}
    ]},
    {"compound": "pertussis toxin [PTX]", "values": [
      {"measurement": "effect on S9SP-mediated T-type current inhibition", "setting": "[2]; 400 ng/ml overnight pre-treatment", "result": "completely abolished"}
    ]},
    {"compound": "O[C@@H](CS)[C@@H](O)CS", "note": "(racemic) [DTT, dithiothreitol]", "values": [
      {"measurement": "effect on zinc levels elevated by ZnPy", "setting": "[1]; 1 mM", "result": "did not alter the elevated zinc levels"},
      {"measurement": "effect on LVA current amplitude on its own", "setting": "[2]; 1 mM", "result": "did not significantly affect"},
      {"measurement": "prevention of S9SP effect on LVA current when applied together", "setting": "[2]; 1 mM DTT before and during 1 μM S9SP", "result": "rendered S9SP ineffective"},
      {"measurement": "reversal of S9SP-induced LVA current inhibition", "setting": "[2]; 1 mM DTT in continued presence of 1 μM S9SP", "result": "completely reversed"},
      {"measurement": "reversal of antimycin A-induced LVA current inhibition", "setting": "[2]; 1 mM DTT, 1 μM antimycin A", "result": "completely reversed"},
      {"measurement": "reversal of H2O2-induced LVA current inhibition", "setting": "[2]; 1 mM DTT, 300 μM H2O2", "result": "reversed"}
    ]}
  ]
}
